Experiments:
[1] = test system: Dengue serotype 2 New Guinea C (NGC) strain; assay: DENV-2 Huh-7 EC50; format: cell-based; conditions: Dengue virus, Huh7 cells, 48 hours, qPCR
Experimental: Huh7 (Human hepatocarcinoma 7) cells were maintained in 10% FCS-containing DMEM complete media. On the day of the assay, cells were trypsinized (0.1% Trypsin-EDTA), washed and infected for 2 hours in serum-free DMEM with Dengue serotype 2 New Guinea C (NGC) strain at MOI=0.1 with gentle agitation at 37° C. After 2 hours, cells were washed with serum-free media and suspended in 10% FCS-containing DMEM (Gibco, supplemented with sodium pyruvate, NEAA, Penicillin-Streptomycin). […] were plated in triplicate in 96-well plates with compounds dispensed at graded doses (Hewlett-Packard D300 Digital Dispenser). All wells were normalized to 0.25% DMSO. At 48 hours, cells were washed with 1×PBS and all supernatants removed. Total RNA was extracted using RNEasy 96 plates (Qiagen) and used to generate first-strand cDNA using XLT cDNA 5× Supermix (QuantaBio). cDNA was used as a template in a Taqman qPCR duplex reaction specific to DENV2 viral and GAPDH gene expression. EC50 values were determined using Prism Graphpad software, with normalization to a positive control and no compound negative control wells.

[2] = PBMC in-vitro intracellular triphosphate formation assay; format: in vitro ADME; conditions: 2 μM, 2 hours incubation, compared to compound 2 and/or 6 (FIG. 2)
Experimental: In-vitro intracellular triphosphate formation was measured for the compound of Formula I and compounds 2 and 6 using the following protocol. Freshly-isolated PBMC's were derived from a healthy donor and were suspended to a concentration of 5 million cells/mL in culture medium ([…] containing L-glutamine) prior to the start of the experiment. 10 mL aliquots of PBMCs were transferred to 50 mL conical tubes with loosened caps and compounds were added to a final concentration of 2 μM. 1 mL aliquots were then transferred to the wells of a 24-well plate per sample. The PBMC-compound mixtures were incubated for 2 hours at 37° c./5% CO2 under gentle agitation. Following incubation, PBMCs were spun at 5000 RPM for 3 min and supernatants were aspirated without disturbing the cell pellet. For samples undergoing immediate analysis, samples were resuspended in pre-cooled 1× Tris-buffered saline and were transferred to 1.5 mL conical tubes containing 0.5 mL of nyosil M25. Samples/Oil aliquots were then spun for 1 min at 13,000 RPM. Following centrifugation, all media was aspirated from the tubes without disturbing the oil layer. Water was added on top of the oil layer and the spinning/aspiration process was repeated followed by an additional water wash. […]

[3] = NHBE in-vitro intracellular triphosphate formation; format: in vitro ADME, human; conditions: 10 μM, up to 26 h, compared to compound 2 and/or 6 (FIG. 1)
Experimental: In-vitro intracellular triphosphate formation was measured for the compound of Formula I and compound 6 using the following protocol. Normal human bronchial airway epithelial cells (NHBEs) (0.25 million cells/well) were continuously incubated with 10 μM of compound for 26 hours. At select time points (2, 4, 6, and 26 h), the extracellular medium was removed from the well and the cells were washed twice with 2 mL of ice-cold 0.9% normal saline and extracted into 0.5 mL ice-cold 70% methanol containing 100 nM 2-chloro-adenosine-5′-triphosphate (Sigma-Aldrich, St. Louis, MO) as an internal standard. Samples were stored overnight at −20° C. to facilitate nucleotide extraction, centrifuged at 15,000×g for 15 minutes and then supernatant was transferred to clean tubes for drying in a MiVac Duo concentrator (Genevac, Gardiner, NY). Dried samples were then reconstituted in mobile phase A containing 3 mM ammonium formate (pH 5.0) with 10 mM dimethylhexylamine (DMHA) in water for analysis by LC-MS/MS.

## C[C@H](N[P@](=O)(OC[C@@]1(C#N)O[C@@H](c2ccc3c(N)ncnn23)[C@H](O)[C@@H]1O)Oc1ccccc1)C(=O)OC1CCCCC1 [Formula I, cyclohexyl ((S)-(((2R,3S,4R,5S)-5-(4-aminopyrrolo[2,1-f][1,2,4]triazin-7-yl)-2-cyano-3,4-dihydroxytetrahydrofuran-2-yl)methoxy)(phenoxy)phosphoryl)-L-alaninate]
[1]
  EC50: 1.63 µM
[2]
  in-vitro intracellular NTP formation in PBMCs: lower
[3]
  in-vitro intracellular NTP formation in NHBEs: equal to or better
